Measured values: patent US20060069040A1, “GHB compositions” (priority 2004, published 2006)
Read-outs that look alike come from different tables or passages of the source.

Assays:
CD-1 male mice [1] = assay: Passivity test (sleep induction and sleep time); assay type: in vivo; details: for Passivity test scores (2-8): 10 minutes after injection, 6 non-fasting mice, 0-normal, 8-no struggle
Protocol: (§1) CD-1 male mice (30-40 g) were housed 3 to 4 per cage in the animal care facility on a 12 hour light dark cycle with free access to water and food for at least 1 week before testing.
The passivity test developed by Irwing was used to determine sleep time. After GHB administration, the mice were placed in an unusual position and a score of 2, 4, 6, or 8 was given when the mice ceased to struggle against respectively being suspended vertically, rotated horizontally onto their backs, suspended by their hind limbs or suspended by their forelimbs. Scores on the passivity test were determined every 10 minutes after GHB administration. […] The time between scores of 8 and 2 was defined as the total sleep time.
(§2) Statistical significance between control and treated groups at each time point in the present study was determined by student's t-test. Note that values of motor activity were expressed as a percentage of the baseline value which was normalized to 100%.
The optimal dose of GHB for inducing sleep was determined with the passivity test. GHB was dissolved in 0.9% NaCl and 1% Tween 80 and delivered intraperitoneally (i.p.) to 4 groups of 6 mice that had not been fasting. Each group received either 200 mg/kg, 400 mg/kg, 600 mg/kg and 800 mg/kg. […] For this reason, this dose was used in the initial exploratory studies.

CD-1 male mice [2] = assay type: in vivo
Protocol: as §1
The Rota-rod is a validated and sensitive tool that has been developed to document neurological deficits after pharmacological treatments. In this test, mice are placed on an accelerating Rota-rod whose revolutions per minute increase from 4 to 40 cycles per minute in about 4 minutes. The time it takes for the mice to fall off the rod is the end point of the test. Initially, the mice were given 3 practice runs on the rod to familiarize themselves with the test procedure. The time that mice remained on the rod was usually between five and ten minutes. A baseline measure was then made, the test drug given and the test procedure run every 20 minutes starting at time 0, immediately after drug administration. The mice were tested for 160 minutes after GHB administration although in some experiments recordings were made for as long as 280 minutes. Motor activity was expressed as a percentage of the baseline value. The time it took the mice to fall off the rod at a given time point after drug administration was divided by the time it took at baseline.
as §2

male Wistar rats [3] = assay: Core body temperature (Tb) and locomotor activity (LMA) recording by implanted transmitter; assay type: in vivo; details: IP dosing at ZT19, GHB 200 mg/kg in all drug conditions, comparators and ZT hours in the value
[4] = man, GHB given orally; cited from earlier work
male Wistar rats [5] = assay: EEG/EMG sleep recording after IP dosing; details: for NR bout duration (NRBD): lights on
[6] = Table 2: i.p., all compounds 800 mg/kg, mice not fasting, n=6, 2′ or 15′ in label = preincubation before GHB
[7] = Table 3: oral, GHB 800 mg/kg, PA 66 mg/kg, mice fasting 12 hours, n=6
[8] = Table 4: GHB orally, GAL/GL/GA intraperitoneally, all 1200 mg/kg, mice fasting 1 hour, n=6
[9] = rats, IP dosing at ZT19, comparators and ZT hours in the value

O=C([O-])CCCO.[Na+] [GHB, gamma-hydroxybutyrate sodium salt]
Passivity test scores (2-8) (CD-1 male mice [1]; GHB 200 mg/kg i.p.): 0
Passivity test scores (2-8) (CD-1 male mice [1]; GHB 400 mg/kg i.p.): 2 ± 0.38
Passivity test scores (2-8) (CD-1 male mice [1]; GHB 600 mg/kg i.p.): 4 ± 0.25
Passivity test scores (2-8) (CD-1 male mice [1]; GHB 800 mg/kg i.p.): 8 ± 0.42
Time to reliably induce sleep (CD-1 male mice [1]; GHB 800 mg/kg i.p., non-fasting mice): ≤ 10 min
Sleep time (CD-1 male mice [1]; Table 5: orally, all compounds 7.93 mmol/kg, mice fasting 24 hours, n=8/group, mean ± S.E.M.): 35 ± 10 min
GHB induced sleep time (CD-1 male mice [1]; non-fasting mice, n=6/group, GHB 800 mg/kg i.p. alone or immediately after 800 mg/kg i.p. of the named compound): 96.5 ± 5 min
Seizure-like activity (CD-1 male mice [2]; GHB 1200 mg/kg orally, mice): appeared to induce seizure-like activity in many of the mice
Percent of motor activity after GHB administration, 20′ (CD-1 male mice [2]; [6]): 0 ± 0%
Percent of motor activity after GHB administration, 40′ (CD-1 male mice [2]; [6]): 0 ± 0%
Percent of motor activity after GHB administration, 60′ (CD-1 male mice [2]; [6]): 0 ± 0%
Percent of motor activity after GHB administration, 80′ (CD-1 male mice [2]; [6]): 20 ± 2%
Percent of motor activity after GHB administration, 100′ (CD-1 male mice [2]; [6]): 35 ± 12%
Percent of motor activity after GHB administration, 120′ (CD-1 male mice [2]; [6]): 65 ± 5%
Percent of motor activity after GHB administration, 140′ (CD-1 male mice [2]; [6]): 113 ± 20%
Percent of motor activity after GHB administration, 160′ (CD-1 male mice [2]; [6]): 124 ± 20%
Percent of motor activity after GHB administration, 0′ (CD-1 male mice [2]; Table 2: i.p., all compounds 800 mg/kg, mice not fasting, n=6, 2′ or 15′ in label = preincubation before GHB, % of baseline, mean ± S.E.M.): 31 ± 7%
Percent of motor activity after GHB administration (oral), 20′ (CD-1 male mice [2]; [7]): 0 ± 0%
Percent of motor activity after GHB administration (oral), 40′ (CD-1 male mice [2]; [7]): 7 ± 3%
Percent of motor activity after GHB administration (oral), 60′ (CD-1 male mice [2]; [7]): 12 ± 6%
Percent of motor activity after GHB administration (oral), 80′ (CD-1 male mice [2]; [7]): 20 ± 8%
Percent of motor activity after GHB administration (oral), 100′ (CD-1 male mice [2]; [7]): 26 ± 5%
Percent of motor activity after GHB administration (oral), 160′ (CD-1 male mice [2]; [7]): 86 ± 1%
Percent of motor activity after GHB administration (oral), 220′ (CD-1 male mice [2]; [7]): 90 ± 8%
Percent of motor activity after GHB administration (oral), 280′ (CD-1 male mice [2]; [7]): 100 ± 7%
Percent of motor activity after GHB administration, 20′ (CD-1 male mice [2]; [8]): 27 ± 19%
Percent of motor activity after GHB administration, 40′ (CD-1 male mice [2]; [8]): 0 ± 0%
Percent of motor activity after GHB administration, 60′ (CD-1 male mice [2]; [8]): 3 ± 2%
Percent of motor activity after GHB administration, 80′ (CD-1 male mice [2]; [8]): 4 ± 1%
Percent of motor activity after GHB administration, 100′ (CD-1 male mice [2]; [8]): 5 ± 4%
Percent of motor activity after GHB administration, 160′ (CD-1 male mice [2]; [8]): 21 ± 10%
Percent of motor activity after GHB administration, 220′ (CD-1 male mice [2]; [8]): 61 ± 12%
Percent of motor activity after GHB administration, 0′ (CD-1 male mice [2]; Table 4: GHB orally, GAL/GL/GA intraperitoneally, all 1200 mg/kg, mice fasting 1 hour, n=6, mean ± S.E.M.): 58 ± 9%
Duration of reproducible decrease in motor activity (CD-1 male mice [2]; mouse, in vivo): more than 100 minutes
Percent of motor activity after GHB administration (oral), 0′ (CD-1 male mice [2]; mouse, in vivo): 51 ± 1%
Percent of motor activity after GHB administration, 0′ (CD-1 male mice [2]; mouse, in vivo, po): 94 ± 9%
Percent of motor activity after GHB administration, 20′ (CD-1 male mice [2]; mouse, in vivo, po): 2 ± 2%
Percent of motor activity after GHB administration, 40′ (CD-1 male mice [2]; mouse, in vivo, po): 0 ± 0%
Percent of motor activity after GHB administration, 60′ (CD-1 male mice [2]; mouse, in vivo, po): 4 ± 1%
Percent of motor activity after GHB administration, 80′ (CD-1 male mice [2]; mouse, in vivo, po): 10 ± 2%
Percent of motor activity after GHB administration, 100′ (CD-1 male mice [2]; mouse, in vivo, po): 22 ± 7%
Percent of motor activity after GHB administration, 160′ (CD-1 male mice [2]; mouse, in vivo, po): 104 ± 26%
Percent of motor activity after GHB administration, 220′ (CD-1 male mice [2]; mouse, in vivo, po): 122 ± 23%
Percent of motor activity after GHB administration, 280′ (CD-1 male mice [2]; mouse, in vivo, po): 117 ± 13%
Duration of depressed motor activity (CD-1 male mice [2]; oral GHB at 1200 mg/kg, mice): at least 220 minutes
Locomotor activity (LMA), hourly average (male Wistar rats [3]): significantly lower LMA compared to vehicle (ZT21)
Plasma half-life [4]: about 45 minutes
Rats that displayed SW activity (male Wistar rats [5]; immediately following IP dosing, 8 rats): Seven of 8
Spike and wave (SW) activity in the EEG (male Wistar rats [5]; rats, IP dosing at ZT19, GHB 200 mg/kg in all drug conditions): elicited spike and wave activity (SW) in the EEG during the first hour following dosing
Time spent awake (W), hourly (male Wistar rats [5]; [9]): reduced W compared to vehicle during ZT 21
Time spent in non-REM (NR) sleep, hourly (male Wistar rats [5]; [9]): significantly greater than vehicle during ZT 21
NR bout duration (NRBD) (male Wistar rats [5]; rats, ZT 1 and 3): increased NRBD compared to GHB+L-gul (ZT 1, 3), GHB+PA (60 mg/kg) (ZT 1, 3) and GHB+PA (120 mg/kg) (ZT 3)
NR bout duration (NRBD) (male Wistar rats [5]; rats, ZT 5): significantly decreased NRBD during ZT 5 compared to GHB+L-gul and GHB+PA (120 mg/kg)
